# Reference: paper PMC7265341, “Quantifying CDK inhibitor selectivity in live cells” (Nature Communications, 2020)
# Where two headings read alike, the source gives them in different places.
# Assays:
# CDK1/Cyclin E1 = CDK1/Cyclin E1 (Homo sapiens, UniProt P06493); experiment: NanoBRET live-cell target engagement, CDK1-NanoLuc/Cyclin E1 in HEK-293; format: binding
# CDK2/Cyclin E1 = CDK2/Cyclin E1 (Homo sapiens, UniProt P24941); experiment: NanoBRET live-cell target engagement, CDK2-NanoLuc/Cyclin E1 in HEK-293; format: binding; conditions: CDK2/E1
# CDK3/Cyclin E1 = CDK3/Cyclin E1 (Homo sapiens, UniProt Q00526); experiment: NanoBRET live-cell target engagement, CDK3-NanoLuc/Cyclin E1 in HEK-293; format: binding; conditions: CDK3/E1
# CDK4/Cyclin D1 = CDK4/Cyclin D1 (Homo sapiens, UniProt P11802); experiment: NanoBRET live-cell target engagement, NanoLuc-CDK4/Cyclin D1 in HEK-293; format: binding; conditions: CDK4/D1
# CDK4/Cyclin D1, sequence (P11802 whole entry): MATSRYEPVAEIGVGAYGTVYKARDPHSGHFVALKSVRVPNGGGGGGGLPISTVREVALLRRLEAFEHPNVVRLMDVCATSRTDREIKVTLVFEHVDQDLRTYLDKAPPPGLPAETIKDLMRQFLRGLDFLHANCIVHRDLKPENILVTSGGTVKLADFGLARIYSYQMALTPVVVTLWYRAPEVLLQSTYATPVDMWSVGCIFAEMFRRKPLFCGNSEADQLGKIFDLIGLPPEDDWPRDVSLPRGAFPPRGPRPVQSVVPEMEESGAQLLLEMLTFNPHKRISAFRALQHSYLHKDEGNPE
# CDK4/Cyclin D1, sequence (P24385 whole entry partner): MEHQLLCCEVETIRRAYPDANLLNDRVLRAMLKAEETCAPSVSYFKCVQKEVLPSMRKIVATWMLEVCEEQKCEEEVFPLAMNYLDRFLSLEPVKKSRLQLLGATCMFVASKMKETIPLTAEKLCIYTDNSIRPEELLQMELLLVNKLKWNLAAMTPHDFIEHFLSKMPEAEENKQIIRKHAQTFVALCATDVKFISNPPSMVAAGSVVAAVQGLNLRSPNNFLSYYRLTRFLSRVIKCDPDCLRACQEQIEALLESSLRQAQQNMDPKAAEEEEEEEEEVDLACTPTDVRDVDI
# CDK5/CDK5R1 = CDK5/CDK5R1 (Homo sapiens, UniProt Q00535); experiment: NanoBRET live-cell target engagement, CDK5-NanoLuc/CDK5R1 in HEK-293; format: binding; conditions: CDK5/CDK5R1
# CDK7 = CDK7 (Homo sapiens, UniProt P50613); experiment: NanoBRET live-cell target engagement, NanoLuc-CDK7 in HEK-293; format: binding; conditions: CDK7
# CDK8/Cyclin C = CDK8/Cyclin C (Homo sapiens, UniProt P49336); experiment: NanoBRET live-cell target engagement, NanoLuc-CDK8/Cyclin C in HEK-293; format: binding; conditions: CDK8/C
# CDK9/Cyclin K = CDK9/Cyclin K (Homo sapiens, UniProt P50750); experiment: NanoBRET live-cell target engagement, NanoLuc-CDK9/Cyclin K in HEK-293; format: binding; conditions: CDK9/K, 10µM
# CDK11A/Cyclin L2 = biological target: T1, CDK11A/Cyclin L2 (Homo sapiens, UniProt Q9UQ88); experiment: NanoBRET live-cell target engagement, CDK11A-NanoLuc/Cyclin L2 in HEK-293; format: binding; conditions: CDK11a/L2, 10µM
# T1 sequence (Q9UQ88 1-783): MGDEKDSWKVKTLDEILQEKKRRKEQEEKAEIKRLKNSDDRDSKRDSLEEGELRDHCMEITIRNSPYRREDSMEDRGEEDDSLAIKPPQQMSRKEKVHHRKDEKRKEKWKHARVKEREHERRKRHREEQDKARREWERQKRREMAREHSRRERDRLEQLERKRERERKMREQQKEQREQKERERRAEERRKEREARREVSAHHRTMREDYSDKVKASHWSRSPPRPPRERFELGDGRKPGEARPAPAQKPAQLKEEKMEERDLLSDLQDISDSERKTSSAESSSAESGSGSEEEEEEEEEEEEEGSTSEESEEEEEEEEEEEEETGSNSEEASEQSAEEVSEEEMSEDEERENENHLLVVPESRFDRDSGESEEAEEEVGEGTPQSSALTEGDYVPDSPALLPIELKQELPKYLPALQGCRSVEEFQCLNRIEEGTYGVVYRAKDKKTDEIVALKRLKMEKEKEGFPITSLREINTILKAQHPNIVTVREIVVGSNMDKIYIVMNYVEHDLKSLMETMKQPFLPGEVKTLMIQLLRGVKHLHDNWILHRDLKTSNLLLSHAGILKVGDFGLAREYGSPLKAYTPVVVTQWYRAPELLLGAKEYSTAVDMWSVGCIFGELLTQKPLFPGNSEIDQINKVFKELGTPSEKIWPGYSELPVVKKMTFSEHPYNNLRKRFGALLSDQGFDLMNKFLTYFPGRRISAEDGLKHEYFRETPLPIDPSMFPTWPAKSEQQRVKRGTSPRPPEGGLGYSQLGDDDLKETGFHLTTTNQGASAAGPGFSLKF
# CDK11B/Cyclin L2 = CDK11B/Cyclin L2 (Homo sapiens, UniProt P21127); experiment: NanoBRET live-cell target engagement, CDK11B-NanoLuc/Cyclin L2 in HEK-293; format: binding; conditions: CDK11b/L2, 10µM
# CDK11B/Cyclin L2, sequence (P21127 1-782 isoform P21127-2): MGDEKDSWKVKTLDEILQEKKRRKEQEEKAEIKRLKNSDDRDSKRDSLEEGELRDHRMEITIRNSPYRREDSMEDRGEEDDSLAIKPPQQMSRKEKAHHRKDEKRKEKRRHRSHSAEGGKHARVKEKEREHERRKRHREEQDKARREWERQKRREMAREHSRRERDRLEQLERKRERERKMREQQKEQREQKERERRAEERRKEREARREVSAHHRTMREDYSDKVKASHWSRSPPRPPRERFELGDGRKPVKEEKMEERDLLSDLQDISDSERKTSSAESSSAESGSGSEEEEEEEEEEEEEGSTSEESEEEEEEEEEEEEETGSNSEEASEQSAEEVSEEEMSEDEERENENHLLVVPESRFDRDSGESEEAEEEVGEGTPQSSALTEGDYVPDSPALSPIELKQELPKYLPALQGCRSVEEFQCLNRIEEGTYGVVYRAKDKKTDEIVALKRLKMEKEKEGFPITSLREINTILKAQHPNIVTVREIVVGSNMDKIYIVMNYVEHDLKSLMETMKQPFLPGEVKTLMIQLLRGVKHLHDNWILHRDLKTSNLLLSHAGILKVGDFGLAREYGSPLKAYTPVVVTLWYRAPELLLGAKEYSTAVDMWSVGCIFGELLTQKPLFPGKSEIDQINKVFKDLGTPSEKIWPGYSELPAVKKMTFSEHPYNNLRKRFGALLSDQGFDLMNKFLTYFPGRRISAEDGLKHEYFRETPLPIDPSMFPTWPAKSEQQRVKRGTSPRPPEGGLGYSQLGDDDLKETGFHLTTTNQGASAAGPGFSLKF
# CDK12/Cyclin K = CDK12/Cyclin K (Homo sapiens, UniProt Q9NYV4); experiment: NanoBRET live-cell target engagement, CDK12-NanoLuc/Cyclin K in HEK-293; format: binding; conditions: CDK12/K, 10µM
# CDK12/Cyclin K, sequence (Q9NYV4 1-1481 isoform Q9NYV4-2): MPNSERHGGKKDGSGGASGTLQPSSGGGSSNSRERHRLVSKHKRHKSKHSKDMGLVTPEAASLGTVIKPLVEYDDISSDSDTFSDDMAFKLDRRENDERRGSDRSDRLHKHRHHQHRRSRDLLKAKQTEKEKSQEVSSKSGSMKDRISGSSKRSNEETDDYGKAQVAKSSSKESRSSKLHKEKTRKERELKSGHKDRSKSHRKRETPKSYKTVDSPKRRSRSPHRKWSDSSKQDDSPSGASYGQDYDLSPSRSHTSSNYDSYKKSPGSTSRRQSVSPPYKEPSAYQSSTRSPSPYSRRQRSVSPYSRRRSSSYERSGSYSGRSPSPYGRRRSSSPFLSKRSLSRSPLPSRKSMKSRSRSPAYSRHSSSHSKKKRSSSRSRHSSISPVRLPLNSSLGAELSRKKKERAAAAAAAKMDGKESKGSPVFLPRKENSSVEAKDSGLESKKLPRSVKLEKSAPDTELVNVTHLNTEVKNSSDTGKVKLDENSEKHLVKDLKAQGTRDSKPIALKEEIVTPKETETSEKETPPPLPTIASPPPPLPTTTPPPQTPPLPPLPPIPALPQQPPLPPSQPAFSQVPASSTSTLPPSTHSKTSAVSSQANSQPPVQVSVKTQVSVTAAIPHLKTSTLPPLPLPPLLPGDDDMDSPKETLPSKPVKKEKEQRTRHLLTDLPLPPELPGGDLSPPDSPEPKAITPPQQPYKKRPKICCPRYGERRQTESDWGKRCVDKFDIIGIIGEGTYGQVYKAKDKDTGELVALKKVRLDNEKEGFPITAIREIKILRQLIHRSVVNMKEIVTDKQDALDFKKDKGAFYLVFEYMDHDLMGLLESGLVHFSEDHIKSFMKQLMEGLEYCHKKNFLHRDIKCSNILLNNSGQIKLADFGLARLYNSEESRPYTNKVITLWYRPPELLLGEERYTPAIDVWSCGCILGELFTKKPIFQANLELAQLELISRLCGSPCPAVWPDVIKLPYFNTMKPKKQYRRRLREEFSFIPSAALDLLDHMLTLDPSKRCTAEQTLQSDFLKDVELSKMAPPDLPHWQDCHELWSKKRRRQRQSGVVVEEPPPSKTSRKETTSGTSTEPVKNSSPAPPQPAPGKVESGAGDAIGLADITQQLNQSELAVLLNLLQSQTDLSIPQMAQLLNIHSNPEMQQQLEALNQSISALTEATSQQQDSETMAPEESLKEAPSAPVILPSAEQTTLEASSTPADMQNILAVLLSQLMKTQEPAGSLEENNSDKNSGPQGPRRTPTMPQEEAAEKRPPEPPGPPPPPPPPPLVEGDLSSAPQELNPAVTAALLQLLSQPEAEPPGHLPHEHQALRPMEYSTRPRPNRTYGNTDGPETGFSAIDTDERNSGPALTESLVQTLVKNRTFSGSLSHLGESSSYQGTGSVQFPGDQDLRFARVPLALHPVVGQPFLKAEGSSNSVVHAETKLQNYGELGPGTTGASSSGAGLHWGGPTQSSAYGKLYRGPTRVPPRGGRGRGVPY
# CDK12/Cyclin K, sequence (O75909 whole entry partner): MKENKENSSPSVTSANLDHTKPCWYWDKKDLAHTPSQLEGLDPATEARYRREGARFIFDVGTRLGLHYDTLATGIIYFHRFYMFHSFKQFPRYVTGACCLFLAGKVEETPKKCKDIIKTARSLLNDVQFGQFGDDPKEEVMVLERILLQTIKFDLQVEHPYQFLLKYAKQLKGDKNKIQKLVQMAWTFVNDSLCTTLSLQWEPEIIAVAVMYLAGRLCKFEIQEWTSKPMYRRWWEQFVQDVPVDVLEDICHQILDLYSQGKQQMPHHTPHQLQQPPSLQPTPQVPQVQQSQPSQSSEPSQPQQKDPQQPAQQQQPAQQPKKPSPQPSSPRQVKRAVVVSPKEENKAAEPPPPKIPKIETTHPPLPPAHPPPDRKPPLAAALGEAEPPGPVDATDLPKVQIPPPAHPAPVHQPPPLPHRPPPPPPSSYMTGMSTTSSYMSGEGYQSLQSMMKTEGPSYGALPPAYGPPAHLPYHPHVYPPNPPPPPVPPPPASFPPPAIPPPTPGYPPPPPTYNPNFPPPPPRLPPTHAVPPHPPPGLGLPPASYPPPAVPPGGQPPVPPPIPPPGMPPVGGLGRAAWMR
# CDK13/Cyclin K = CDK13/Cyclin K (Homo sapiens, UniProt Q14004); experiment: NanoBRET live-cell target engagement, CDK13-NanoLuc/Cyclin K in HEK-293; format: binding; conditions: CDK13/K, 10µM
# CDK14/Cyclin Y = CDK14/Cyclin Y (Homo sapiens, UniProt O94921); experiment: NanoBRET live-cell target engagement, CDK14-NanoLuc/Cyclin Y in HEK-293; format: binding; conditions: CDK14/Y
# CDK14/Cyclin Y, sequence (O94921 whole entry): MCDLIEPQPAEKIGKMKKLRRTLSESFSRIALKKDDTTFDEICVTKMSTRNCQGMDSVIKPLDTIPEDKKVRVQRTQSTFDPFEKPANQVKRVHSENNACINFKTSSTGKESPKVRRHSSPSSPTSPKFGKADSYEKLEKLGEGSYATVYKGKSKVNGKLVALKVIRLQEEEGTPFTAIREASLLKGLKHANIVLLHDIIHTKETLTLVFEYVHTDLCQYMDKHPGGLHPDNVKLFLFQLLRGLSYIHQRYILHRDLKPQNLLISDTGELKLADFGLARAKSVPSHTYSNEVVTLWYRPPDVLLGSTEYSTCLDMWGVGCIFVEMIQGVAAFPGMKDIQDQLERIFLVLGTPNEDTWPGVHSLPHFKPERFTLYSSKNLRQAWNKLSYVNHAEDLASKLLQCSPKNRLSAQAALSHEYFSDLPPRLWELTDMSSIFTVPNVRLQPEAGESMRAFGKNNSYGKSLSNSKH
# CDK14/Cyclin Y, sequence (Q8ND76 whole entry partner): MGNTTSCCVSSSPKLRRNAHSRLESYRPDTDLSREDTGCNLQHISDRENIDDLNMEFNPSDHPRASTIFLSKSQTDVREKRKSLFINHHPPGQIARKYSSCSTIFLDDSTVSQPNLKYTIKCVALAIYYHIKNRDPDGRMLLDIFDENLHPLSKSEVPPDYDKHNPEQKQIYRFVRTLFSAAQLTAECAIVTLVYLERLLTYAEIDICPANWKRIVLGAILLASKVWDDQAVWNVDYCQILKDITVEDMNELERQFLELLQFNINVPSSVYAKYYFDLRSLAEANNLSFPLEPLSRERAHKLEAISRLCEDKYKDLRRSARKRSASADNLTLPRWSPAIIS
# CDK15/Cyclin Y = CDK15/Cyclin Y (Homo sapiens, UniProt Q96Q40); experiment: NanoBRET live-cell target engagement, NanoLuc-CDK15/Cyclin Y in HEK-293; format: binding; conditions: CDK15/Y
# CDK16/Cyclin Y = CDK16/Cyclin Y (Homo sapiens, UniProt Q00536); experiment: NanoBRET live-cell target engagement, CDK16-NanoLuc/Cyclin Y in HEK-293; format: binding; conditions: CDK16/Y
# CDK16/Cyclin Y, sequence (Q00536 whole entry): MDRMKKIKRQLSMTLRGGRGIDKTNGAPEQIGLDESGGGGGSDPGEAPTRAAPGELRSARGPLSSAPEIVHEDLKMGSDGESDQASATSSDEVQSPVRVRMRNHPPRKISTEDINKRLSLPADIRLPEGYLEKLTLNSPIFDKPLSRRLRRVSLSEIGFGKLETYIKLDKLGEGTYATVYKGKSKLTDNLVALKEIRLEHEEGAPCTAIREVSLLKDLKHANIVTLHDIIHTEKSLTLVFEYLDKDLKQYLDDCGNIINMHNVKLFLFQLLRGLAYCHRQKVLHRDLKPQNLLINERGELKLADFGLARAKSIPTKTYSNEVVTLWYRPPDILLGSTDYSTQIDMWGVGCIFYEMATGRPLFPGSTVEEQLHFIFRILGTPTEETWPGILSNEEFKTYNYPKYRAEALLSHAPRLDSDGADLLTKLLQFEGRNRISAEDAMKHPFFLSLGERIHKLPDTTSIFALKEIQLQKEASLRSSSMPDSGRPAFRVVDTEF
# CDK16/Cyclin Y, sequence (Q8ND76 whole entry partner): as the sequence (Q8ND76 whole entry partner) above
# CDK17/Cyclin Y = CDK17/Cyclin Y (Homo sapiens, UniProt Q00537); experiment: NanoBRET live-cell target engagement, CDK17-NanoLuc/Cyclin Y in HEK-293; format: binding; conditions: CDK17/Y
# CDK20/Cyclin H = CDK20/Cyclin H (Homo sapiens, UniProt Q8IZL9); experiment: NanoBRET live-cell target engagement, NanoLuc-CDK20/Cyclin H in HEK-293; format: binding; conditions: CDK20/H; 10µM
# CDK19/Cyclin C = CDK19/Cyclin C (Homo sapiens, UniProt Q9BWU1); experiment: NanoBRET live-cell target engagement, NanoLuc-CDK19/Cyclin C in HEK-293
# CDK10/Cyclin L2 = CDK10/Cyclin L2 (Homo sapiens, UniProt Q15131); experiment: NanoBRET live-cell target engagement, CDK10-NanoLuc/Cyclin L2 in HEK-293; conditions: CDK10/L2
# [1] = n=3 average ± SEM, n=2 average to 2 significant figures, read-out: IC50 (nM) Average*
# [2] = read-out: IC50 (nM) Replicate 1
# [3] = read-out: IC50 (nM) Replicate 2
smiles,measurement,setting,value
CNC1CCN(C(=O)c2ccc(Nc3ncc(F)c(-c4cnc(C)n4C(C)C)n3)cc2)C1 (centres unmarked) [AZD5597],Inhibition at 10µM (%) Replicate 1,"CDK1/Cyclin E1; CDK1/E1, 10µM",93.8%
same,Inhibition at 10µM (%) Replicate 2,"CDK1/Cyclin E1; CDK1/E1, 10µM",95.4%
same,Inhibition at 10µM (%) Average,"CDK1/Cyclin E1; CDK1/E1, 10µM, average of replicates",94.6%
same,IC50,"CDK1/Cyclin E1; CDK1/E1, n=3 average ± SEM, n=2 average to 2 significant figures, read-out: IC50 (nM) Average*",9 nM
same,IC50,"CDK1/Cyclin E1; CDK1/E1, read-out: IC50 (nM) Replicate 1",9 nM
same,IC50,"CDK1/Cyclin E1; CDK1/E1, read-out: IC50 (nM) Replicate 2",9 nM
same,IC50,"CDK1/Cyclin E1; live HEK-293, 2 h, mean ± S.E.M. (n=3) or mean (n=2), read-out: IC50 for CDK/cyclin complexes, CDK1/E1",9 nM
same,Inhibition at 10µM (%) Replicate 1,CDK2/Cyclin E1; 10µM,99.9%
same,Inhibition at 10µM (%) Replicate 2,CDK2/Cyclin E1; 10µM,99.7%
same,Inhibition at 10µM (%) Average,"CDK2/Cyclin E1; 10µM, average of replicates",99.8%
same,IC50,CDK2/Cyclin E1; [1],6.6 nM
same,IC50,CDK2/Cyclin E1; [2],6.7 nM
same,IC50,CDK2/Cyclin E1; [3],6.4 nM
same,Inhibition at 10µM (%) Replicate 1,CDK3/Cyclin E1; 10µM,99.1%
same,Inhibition at 10µM (%) Replicate 2,CDK3/Cyclin E1; 10µM,98.8%
same,Inhibition at 10µM (%) Average,"CDK3/Cyclin E1; 10µM, average of replicates",98.9%
same,IC50,CDK3/Cyclin E1; [1],3.4 nM
same,IC50,CDK3/Cyclin E1; [2],1.6 nM
same,IC50,CDK3/Cyclin E1; [3],5.2 nM
same,Inhibition at 10µM (%) Replicate 1,CDK4/Cyclin D1; 10µM,101.0%
same,Inhibition at 10µM (%) Replicate 2,CDK4/Cyclin D1; 10µM,98.2%
same,Inhibition at 10µM (%) Average,"CDK4/Cyclin D1; 10µM, average of replicates",99.6%
same,IC50,CDK4/Cyclin D1; [1],7 nM
same,IC50,CDK4/Cyclin D1; [2],7.4 nM
same,IC50,CDK4/Cyclin D1; [3],6.6 nM
same,Inhibition at 10µM (%) Replicate 1,CDK5/CDK5R1; 10µM,90.7%
same,Inhibition at 10µM (%) Replicate 2,CDK5/CDK5R1; 10µM,97.1%
same,Inhibition at 10µM (%) Average,"CDK5/CDK5R1; 10µM, average of replicates",93.9%
same,IC50,CDK5/CDK5R1; [1],10 nM
same,IC50,CDK5/CDK5R1; [2],8.2 nM
same,IC50,CDK5/CDK5R1; [3],12 nM
same,Inhibition at 10µM (%) Replicate 1,CDK7; 10µM,95.4%
same,Inhibition at 10µM (%) Replicate 2,CDK7; 10µM,93.6%
same,Inhibition at 10µM (%) Average,"CDK7; 10µM, average of replicates",94.5%
same,IC50,CDK7; [1],120 nM
same,IC50,CDK7; [2],100 nM
same,IC50,CDK7; [3],150 nM
same,Inhibition at 10µM (%) Replicate 1,CDK8/Cyclin C; 10µM,91.3%
same,Inhibition at 10µM (%) Replicate 2,CDK8/Cyclin C; 10µM,98.8%
same,Inhibition at 10µM (%) Average,"CDK8/Cyclin C; 10µM, average of replicates",95.1%
same,IC50,CDK8/Cyclin C; [1],370 nM
same,IC50,CDK8/Cyclin C; [2],434 nM
same,IC50,CDK8/Cyclin C; [3],297 nM
same,Inhibition at 10µM (%) Replicate 1,CDK9/Cyclin K,98.2%
same,Inhibition at 10µM (%) Replicate 2,CDK9/Cyclin K,100.7%
same,Inhibition at 10µM (%) Average,CDK9/Cyclin K; average of replicates,99.5%
same,Inhibition at 10µM (%) Replicate 1,CDK11A/Cyclin L2,89.7%
same,Inhibition at 10µM (%) Replicate 2,CDK11A/Cyclin L2,90.1%
same,Inhibition at 10µM (%) Average,CDK11A/Cyclin L2; average of replicates,89.9%
same,Inhibition at 10µM (%) Replicate 1,CDK11B/Cyclin L2,88.8%
same,Inhibition at 10µM (%) Replicate 2,CDK11B/Cyclin L2,88.6%
same,Inhibition at 10µM (%) Average,CDK11B/Cyclin L2; average of replicates,88.7%
same,Inhibition at 10µM (%) Replicate 1,CDK12/Cyclin K,44.4%
same,Inhibition at 10µM (%) Replicate 2,CDK12/Cyclin K,42.5%
same,Inhibition at 10µM (%) Average,CDK12/Cyclin K; average of replicates,43.5%
same,Inhibition at 10µM (%) Replicate 1,CDK13/Cyclin K,42.5%
same,Inhibition at 10µM (%) Replicate 2,CDK13/Cyclin K,57.5%
same,Inhibition at 10µM (%) Average,CDK13/Cyclin K; average of replicates,50.0%
same,Inhibition at 10µM (%) Replicate 1,CDK14/Cyclin Y; 10µM,93.6%
same,Inhibition at 10µM (%) Replicate 2,CDK14/Cyclin Y; 10µM,93.4%
same,Inhibition at 10µM (%) Average,"CDK14/Cyclin Y; 10µM, average of replicates",93.5%
same,IC50,CDK14/Cyclin Y; [1],250 nM
same,IC50,CDK14/Cyclin Y; [2],151 nM
same,IC50,CDK14/Cyclin Y; [3],350 nM
same,Inhibition at 10µM (%) Replicate 1,CDK15/Cyclin Y; 10µM,93.9%
same,Inhibition at 10µM (%) Replicate 2,CDK15/Cyclin Y; 10µM,95.6%
same,Inhibition at 10µM (%) Average,"CDK15/Cyclin Y; 10µM, average of replicates",94.7%
same,IC50,CDK15/Cyclin Y; [1],300 nM
same,IC50,CDK15/Cyclin Y; [2],250 nM
same,IC50,CDK15/Cyclin Y; [3],350 nM
same,Inhibition at 10µM (%) Replicate 1,CDK16/Cyclin Y; 10µM,88.2%
same,Inhibition at 10µM (%) Replicate 2,CDK16/Cyclin Y; 10µM,91.4%
same,IC50,CDK16/Cyclin Y; [1],13 nM
same,IC50,CDK16/Cyclin Y; [2],8.9 nM
same,IC50,CDK16/Cyclin Y; [3],18 nM
same,Inhibition at 10µM (%) Replicate 1,CDK17/Cyclin Y; 10µM,90.9%
same,Inhibition at 10µM (%) Replicate 2,CDK17/Cyclin Y; 10µM,91.8%
same,Inhibition at 10µM (%) Average,"CDK17/Cyclin Y; 10µM, average of replicates",91.3%
same,IC50,CDK17/Cyclin Y; [1],10 nM
same,IC50,CDK17/Cyclin Y; [2],6.5 nM
same,IC50,CDK17/Cyclin Y; [3],13 nM
same,Inhibition at 10µM (%) Replicate 1,CDK20/Cyclin H,68.9%
same,Inhibition at 10µM (%) Replicate 2,CDK20/Cyclin H,74.8%
same,Inhibition at 10µM (%) Replicate 1,"CDK19/Cyclin C; CDK19/C, 10µM",88.7%
same,Inhibition at 10µM (%) Replicate 2,"CDK19/Cyclin C; CDK19/C, 10µM",89.0%
same,Inhibition at 10µM (%) Average,"CDK19/Cyclin C; CDK19/C, 10µM, average of replicates",88.9%
same,IC50,"CDK19/Cyclin C; read-out: IC50 (nM) Average*, CDK19/Y, n=3 average ± SEM, n=2 average to 2 significant figures",240 nM
same,IC50,"CDK19/Cyclin C; read-out: IC50 (nM) Replicate 1, CDK19/C",354 nM
same,IC50,"CDK19/Cyclin C; read-out: IC50 (nM) Replicate 2, CDK19/C",119 nM
same,Inhibition at 10µM (%) Replicate 1,CDK10/Cyclin L2; 10µM,85.6%
same,Inhibition at 10µM (%) Replicate 2,CDK10/Cyclin L2; 10µM,87.4%
same,Inhibition at 10µM (%) Average,"CDK10/Cyclin L2; 10µM, average of replicates",86.5%
same,IC50,"CDK10/Cyclin L2; read-out: IC50 (nM) Average*, n=3 average ± SEM, n=2 average to 2 significant figures",520 nM
same,IC50,CDK10/Cyclin L2; [2],450 nM
same,IC50,CDK10/Cyclin L2; [3],580 nM
